From patent EP0908457B1, “3-(1,2-benzisothiazol- and isoxazol-5-Y1)-2,4(1H,3H)-pyrimidinedione or thione and 3-(1,2-benzisothiazol- and isoxazol-5-y1)-4(3H)-pyrimidinone or thione herbicidal agents” (BASF AKTIENGESELLSCHAFT, priority 1997, dated 1999) come the findings set out here.

Assay type in all cases: in vivo
For test [1], the system named is Monochoria vaginalis, Presl. The test is described as follows: Preemergence weed control under flooded paddy conditions, MOOVA (Monochoria). As to herbicidal effect rating, MOOVA: meaning of each grade not given here. The following applies: flooded paddy; for MOOVA: preemergence weeds, herbicidal effect rating 0-9, three to four weeks after treatment; for MOOVA herbicidal rating / herbicidal effect rating, MOOVA: preemergence, rated three to four weeks after treatment.

A further test relates to Sagittaria pygmaea, L. The test is described as follows: Preemergence weed control under flooded paddy conditions, SAGPY (Arrowhead (Pygmaea)). As to herbicidal effect rating, SAGPY: meaning of each grade not given here. The following applies: flooded paddy; for SAGPY: preemergence weeds, herbicidal effect rating 0-9, three to four weeks after treatment; for SAGPY herbicidal rating / herbicidal effect rating, SAGPY: preemergence, rated three to four weeks after treatment.

Test [2] has as its system Cyperus serotinus, Rottb. The test is described as follows: Preemergence weed control under flooded paddy conditions, CYPSE (Flatsedge). As to herbicidal effect rating, CYPSE: meaning of each grade not given here. The note with it: for CYPSE: preemergence weeds, herbicidal effect rating 0-9, three to four weeks after treatment; for CYPSE herbicidal rating / herbicidal effect rating, CYPSE: preemergence, rated three to four weeks after treatment.
The test system of test [3] is Echinochloa oryzoides (Ard.) Fritsch. The test is described as follows: Preemergence weed control under flooded paddy conditions, ECHORC (Watergrass (Calif.)). As to herbicidal effect rating, ECHORC: meaning of each grade not given here. The following applies: flooded paddy; for ECHORC: preemergence weeds, herbicidal effect rating 0-9, three to four weeks after treatment; for ECHORC herbicidal rating / herbicidal effect rating, ECHORC: preemergence, rated three to four weeks after treatment.

For a further test, the system named is Cyperus iria. The test is described as follows: Preemergence weed control under flooded paddy conditions, CYPIR (Rice Flatsedge). As to herbicidal effect rating, CYPIR: meaning of each grade not given here. The following applies: flooded paddy; for CYPIR: preemergence weeds, herbicidal effect rating 0-9, three to four weeks after treatment; for CYPIR herbicidal rating / herbicidal effect rating, CYPIR: preemergence, rated three to four weeks after treatment.

Take `Cn1c(C(F)(F)F)cc(=O)n(-c2ccc3snc(COC(=O)Cc4cccs4)c3c2)c1=O` [Example 451, 2,4(1H,3H)-Pyrimidinedione, 3-[3-(hydroxymethyl)-1,2-benzisothiazol-5-yl]-1-methyl-6-(trifluoromethyl)-, 2-thienylacetate (ester)]: the MOOVA in test [1] (0.0320 kg/ha), in test [1] (0.0620 kg/ha), in test [1] (0.1250 kg/ha) and in test [1] (0.2500 kg/ha) was 9.0 each time. Moreover, the SAGPY stood at 4.0 with Sagittaria pygmaea, L. (0.0320 kg/ha); 5.0 with Sagittaria pygmaea, L. (0.0620 kg/ha); 6.0 in the test with Sagittaria pygmaea, L. (0.1250 kg/ha); 9.0 in the test on Sagittaria pygmaea, L. (0.2500 kg/ha). The CYPSE in test [2] (0.0620 kg/ha) and in test [2] (0.2500 kg/ha) was 0.0 each time. Besides, the ECHORC in test [3] (0.0320 kg/ha) turned out to be 0.0; in test [3] (0.0620 kg/ha), 0.0; in test [3] (0.1250 kg/ha) it was 6.0; in test [3] (0.2500 kg/ha) it was 7.0. For the same molecule, the CYPIR with Cyperus iria (0.0320 kg/ha) amounted to 5.0; in the test on Cyperus iria (0.0620 kg/ha) it was 5.0; with Cyperus iria (0.1250 kg/ha) it was 7.0; in the test on Cyperus iria (0.2500 kg/ha), 9.0.

`Cn1c(C(F)(F)F)cc(=O)n(-c2ccc3snc(COC(=O)c4ccco4)c3c2)c1=O` [Example 497, 2,4(1H,3H)-Pyrimidinedione, 3-[3-(hydroxymethyl)-1,2-benzisothiazol-5-yl]-1-methyl-6-(trifluoromethyl)-, 2-furoate (ester)]: the MOOVA herbicidal rating in test [1] (0.0320 kg/ha) stood at 6.0; in test [1] (0.0620 kg/ha), 7.0; in test [1] (0.1250 kg/ha), 9.0; in test [1] (0.2500 kg/ha) it was 9.0. For the same molecule, the SAGPY herbicidal rating with Sagittaria pygmaea, L. (0.0320 kg/ha) is on record as 0.0; in the test on Sagittaria pygmaea, L. (0.0620 kg/ha), 0.0; in the test with Sagittaria pygmaea, L. (0.1250 kg/ha), 2.0; in the test with Sagittaria pygmaea, L. (0.2500 kg/ha), 6.0. Further, the values for the CYPSE herbicidal rating in test [2] (0.1250 kg/ha) and in test [2] (0.2500 kg/ha) were 6.0 and 9.0, respectively. In addition, the ECHORC herbicidal rating was determined as 0.0 in test [3] (0.0320 kg/ha), 0.0 in test [3] (0.0620 kg/ha), 4.0 in test [3] (0.1250 kg/ha) and 7.0 in test [3] (0.2500 kg/ha). Moreover, the CYPIR herbicidal rating in the test with Cyperus iria (0.0320 kg/ha) is 5.0; with Cyperus iria (0.0620 kg/ha), 6.0; with Cyperus iria (0.1250 kg/ha), 9.0; in the test on Cyperus iria (0.2500 kg/ha) it was 9.0.

`Cn1c(C(F)(F)F)cc(=O)n(-c2ccc3snc(COC(=O)C(C)(C)C)c3c2)c1=O` [Example 498, 2,4(1H,3H)-Pyrimidinedione, 3-[3-(hydroxymethyl)-1,2-benzisothiazol-5-yl]-1-methyl-6-(trifluoromethyl)-, pivalate (ester)]: the MOOVA herbicidal rating in test [1] (0.0320 kg/ha) is given as 4.0; in test [1] (0.0620 kg/ha), 5.0; in test [1] (0.1250 kg/ha), 7.0; in test [1] (0.2500 kg/ha), 8.0. The SAGPY herbicidal rating is reported as 0.0 with Sagittaria pygmaea, L. (0.0320 kg/ha); 0.0 with Sagittaria pygmaea, L. (0.0620 kg/ha); 3.0 with Sagittaria pygmaea, L. (0.1250 kg/ha); 6.0 in the test on Sagittaria pygmaea, L. (0.2500 kg/ha). In test [2] (0.1250 kg/ha), this molecule had a CYPSE herbicidal rating of 0.0. Further, the ECHORC herbicidal rating was 0.0 in test [3] (0.0320 kg/ha), 3.0 in test [3] (0.0620 kg/ha), 5.0 in test [3] (0.1250 kg/ha) and 6.0 in test [3] (0.2500 kg/ha). Besides, the CYPIR herbicidal rating in the test with Cyperus iria (0.0320 kg/ha) is recorded as 2.0; with Cyperus iria (0.0620 kg/ha), 5.0; with Cyperus iria (0.1250 kg/ha) it was 9.0; with Cyperus iria (0.2500 kg/ha), 9.0.

Turning to `COc1ccc(CC(=O)OCc2nsc3ccc(-n4c(=O)cc(C(F)(F)F)n(C)c4=O)cc23)cc1OC` [Example 502, 2,4(1H,3H)-Pyrimidinedione, 3-[3-(hydroxymethyl)-1,2-benzisothiazol-5-yl]-1-methyl-6-(trifluoromethyl)-, (3,4-dimethoxyphenyl)acetate (ester)], the MOOVA herbicidal rating in test [1] (0.0320 kg/ha) stood at 6.0; in test [1] (0.0620 kg/ha) it was 6.0; in test [1] (0.1250 kg/ha), 7.0; in test [1] (0.2500 kg/ha) it was 9.0. Moreover, the SAGPY herbicidal rating in the test with Sagittaria pygmaea, L. (0.0320 kg/ha) was 0.0; in the test with Sagittaria pygmaea, L. (0.0620 kg/ha), 2.0; in the test with Sagittaria pygmaea, L. (0.1250 kg/ha), 5.0; with Sagittaria pygmaea, L. (0.2500 kg/ha), 9.0. In addition, the figures for the CYPSE herbicidal rating in test [2] (0.0320 kg/ha), in test [2] (0.0620 kg/ha) and in test [2] (0.2500 kg/ha) were 0.0, 2.0 and 5.0, respectively. The ECHORC herbicidal rating in test [3] (0.0320 kg/ha) amounted to 3.0; in test [3] (0.0620 kg/ha), 3.0; in test [3] (0.1250 kg/ha), 5.0; in test [3] (0.2500 kg/ha) it was 7.0. Further, the CYPIR herbicidal rating worked out at 4.0 in the test with Cyperus iria (0.0320 kg/ha), 6.0 with Cyperus iria (0.0620 kg/ha), 9.0 in the test with Cyperus iria (0.1250 kg/ha) and 9.0 in the test with Cyperus iria (0.2500 kg/ha).

For `CCC(C(=O)OCc1nsc2ccc(-n3c(=O)cc(C(F)(F)F)n(C)c3=O)cc12)c1ccccc1` (stereo not shown) [Example 473, 2,4(1H,3H)-Pyrimidinedione, 3-[3-(hydroxymethyl)-1,2-benzisothiazol-5-yl]-1-methyl-6-(trifluoromethyl)-, 2-phenylbutyrate (ester)], the MOOVA herbicidal rating in test [1] (0.0320 kg/ha) is recorded as 4.0; in test [1] (0.0620 kg/ha), 6.0; in test [1] (0.1250 kg/ha), 7.0; in test [1] (0.2500 kg/ha), 7.0. Further, the SAGPY herbicidal rating in the test with Sagittaria pygmaea, L. (0.0320 kg/ha) came to 0.0; in the test with Sagittaria pygmaea, L. (0.0620 kg/ha), 0.0; in the test on Sagittaria pygmaea, L. (0.1250 kg/ha), 2.0; in the test on Sagittaria pygmaea, L. (0.2500 kg/ha) it was 3.0. The CYPSE herbicidal rating in test [2] (0.0320 kg/ha) is 0.0; in test [2] (0.0620 kg/ha) it was 0.0; in test [2] (0.2500 kg/ha), 5.0. In addition, the ECHORC herbicidal rating is reported as 1.0 in test [3] (0.0320 kg/ha), 2.0 in test [3] (0.0620 kg/ha), 2.0 in test [3] (0.1250 kg/ha) and 4.0 in test [3] (0.2500 kg/ha). The CYPIR herbicidal rating is on record as 2.0 with Cyperus iria (0.0320 kg/ha), 4.0 in the test with Cyperus iria (0.0620 kg/ha), 6.0 in the test on Cyperus iria (0.1250 kg/ha) and 8.0 with Cyperus iria (0.2500 kg/ha).

For the molecule `Cn1c(C(F)(F)F)cc(=O)n(-c2ccc3snc(COC(=O)Nc4ccccc4)c3c2)c1=O` [Example 375, 2,4(1H,3H)-Pyrimidinedione, 3-[3-(hydroxymethyl)-1,2-benzisothiazol-5-yl]-1-methyl-6-(trifluoromethyl)-, phenylcarbamate (ester)], the “herbicidal effect rating, MOOVA” value in test [1] (Rate 0.0320 kg/ha), in test [1] (Rate 0.0620 kg/ha), in test [1] (Rate 0.1250 kg/ha) and in test [1] (Rate 0.2500 kg/ha) was 9.0 in each case. The “herbicidal effect rating, SAGPY” value in the test with Sagittaria pygmaea, L. (Rate 0.0320 kg/ha) is on record as 7.0; with Sagittaria pygmaea, L. (Rate 0.0620 kg/ha) it was 9.0; in the test on Sagittaria pygmaea, L. (Rate 0.1250 kg/ha), 9.0; with Sagittaria pygmaea, L. (Rate 0.2500 kg/ha), 9.0. Moreover, the “herbicidal effect rating, CYPSE” value in test [2] (Rate 0.0320 kg/ha) was determined as 0.0; in test [2] (Rate 0.0620 kg/ha), 0.0; in test [2] (Rate 0.1250 kg/ha), 4.0; in test [2] (Rate 0.2500 kg/ha), 7.0. Moreover, the “herbicidal effect rating, ECHORC” value came out at 6.0 in test [3] (Rate 0.0320 kg/ha), 6.0 in test [3] (Rate 0.0620 kg/ha), 9.0 in test [3] (Rate 0.1250 kg/ha) and 9.0 in test [3] (Rate 0.2500 kg/ha). Also, the “herbicidal effect rating, CYPIR” value with Cyperus iria (Rate 0.0320 kg/ha) came to 3.0; in the test on Cyperus iria (Rate 0.0620 kg/ha), 4.0; in the test with Cyperus iria (Rate 0.1250 kg/ha), 6.0; in the test on Cyperus iria (Rate 0.2500 kg/ha) it was 9.0.

For the molecule `Cn1c(C(F)(F)F)cc(=O)n(-c2ccc3snc(C(C#N)=CC4CCCC4)c3c2)c1=O` [Example 607, 1,2-Benzisothiazole-3-acetonitrile, alpha(cyclopentylmethylene)-5-[3,6-dihydro-3-methyl-2,6-dioxo-4-(trifluoromethyl)-1(2H)-pyrimidinyl]-, (E)- and (Z)-], the “herbicidal effect rating, MOOVA” value in test [1] (Rate 0.0320 kg/ha) turned out to be 6.0; in test [1] (Rate 0.0620 kg/ha), 7.0; in test [1] (Rate 0.1250 kg/ha) it was 9.0; in test [1] (Rate 0.2500 kg/ha), 9.0. Also, the “herbicidal effect rating, SAGPY” value with Sagittaria pygmaea, L. (Rate 0.0320 kg/ha) is recorded as 0.0; with Sagittaria pygmaea, L. (Rate 0.0620 kg/ha), 0.0; in the test with Sagittaria pygmaea, L. (Rate 0.1250 kg/ha) it was 0.0; with Sagittaria pygmaea, L. (Rate 0.2500 kg/ha), 3.0. Moreover, the “herbicidal effect rating, CYPSE” value in test [2] (Rate 0.0620 kg/ha), in test [2] (Rate 0.1250 kg/ha) and in test [2] (Rate 0.2500 kg/ha) was 0.0 in each case. Further, the “herbicidal effect rating, ECHORC” value in test [3] (Rate 0.0320 kg/ha) is recorded as 4.0; in test [3] (Rate 0.0620 kg/ha), 7.0; in test [3] (Rate 0.1250 kg/ha) it was 9.0; in test [3] (Rate 0.2500 kg/ha), 9.0. The “herbicidal effect rating, CYPIR” value in the test with Cyperus iria (Rate 0.0320 kg/ha) was determined as 0.0; in the test on Cyperus iria (Rate 0.0620 kg/ha), 2.0; in the test on Cyperus iria (Rate 0.1250 kg/ha) it was 5.0; with Cyperus iria (Rate 0.2500 kg/ha), 5.0.
